Test results reported in US20250066353A1, “VANIN-1 INHIBITORS” (ATHOS THERAPEUTICS, INC., priority 2023, published 2025).

Target: Vanin-1 (Homo sapiens (Human), UniProt O95497)
Test: VNN1 inhibitor binding assay (Pantothenate-AMC fluorescence)
Assay type: biochemical
Conditions: not given
Method: Vanin-1 inhibitor binding assays for selected compounds as described herein, and reference compound RR6 (also “(R)-2,4-dihydroxy-3,3-dimethyl-N-(3-oxo-4-phenylbutyl)butanamide”) were examined and the IC50 values of were determined.
5 μL of 3× (45 μM) of Pantothenate-AMC to achieve final concentrations of 15 μM (0.25% DMSO final) were added in a 384 well assay plate followed by the addition of 5 μL of 3× the desired concentration of the tested compounds (Compound 1; Compound 2; and RR6) in 0.75% DMSO to designated wells (0.25% of DMSO final). The range of the compound concentrations tested was 10, 3.33, 1.11, 0.37, 0.12, 0.04, 0.01, 0.0046, 0.001, and 0.0005 μM. 5 μL of 0.75% DMSO were also added to positive and negative control wells.
5 μL of 1.4 ng/μL Vanain-1 was added to the assay plate to achieve a final amount of 7 ng/well, and covered with plate sealer. Another 5 μL of assay buffer was added to negative controls and the assay plate was then centrifuged briefly (1000 rpm for 30 s) in a plate centrifuge. The assay plate was incubated in the dark for 20 minutes at room temperature and immediately read on an Envision 2105, PerkinElmer multimode plate reader.
The fluorescence read was captured at excitation wavelength of 355 nm and emission wavelength of 460 nm. Percent inhibition of the test compounds was calculated using the following equation: […]
In the above equation, “A” is the relative fluorescence units of the test compound (test compound+Pantothenate-AMC+Vanin1); “B” is the relative fluorescence units of the average minimum (DMSO+Pantothenate-AMC+assay buffer); and “C” is the relative fluorescence units of the average maximum (DMSO+Pantothenate-AMC+Vanin1).

Sequence of Vanin-1 (O95497 22-513): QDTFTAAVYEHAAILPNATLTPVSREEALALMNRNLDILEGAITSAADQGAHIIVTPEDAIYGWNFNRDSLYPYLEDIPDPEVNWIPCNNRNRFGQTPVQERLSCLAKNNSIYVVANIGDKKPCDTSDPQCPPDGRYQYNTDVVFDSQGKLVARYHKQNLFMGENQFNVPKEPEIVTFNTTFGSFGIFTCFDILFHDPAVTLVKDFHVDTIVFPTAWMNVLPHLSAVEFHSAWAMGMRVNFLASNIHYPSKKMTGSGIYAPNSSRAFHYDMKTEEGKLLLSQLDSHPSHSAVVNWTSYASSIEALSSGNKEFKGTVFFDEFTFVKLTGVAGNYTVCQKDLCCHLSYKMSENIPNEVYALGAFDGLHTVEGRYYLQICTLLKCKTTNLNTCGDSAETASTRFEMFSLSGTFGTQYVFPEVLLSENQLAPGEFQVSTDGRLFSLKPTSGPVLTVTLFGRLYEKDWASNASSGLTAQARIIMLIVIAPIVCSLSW

**Q.** With `CC(C)(CO)[C@@H](O)C(=O)NCCC(=O)Cc1ccccc1` [RR6, (R)-2,4-dihydroxy-3,3-dimethyl-N-(3-oxo-4-phenylbutyl)butanamide, reference compound] as the molecule, how does the IC50 read?
**A.** The IC50 was 1 to 10 µM.

Same assay, conditions: 15 μM Pantothenate-AMC, 7 ng/well Vanin-1, 20 minutes at room temperature; read-out: Vanin-1 IC50

**Q.** For `O=C1NCCc2nc(NCc3cccnc3)ccc21` [Compound 2, 2-((Pyridin-3-ylmethyl)amino)-7,8-dihydro-1,6-naphthyridin-5(6H)-one], which IC50 is on record?
**A.** Its IC50 is 1 to 10 µM.

**Q.** Which IC50 does the source give for `CN(C)CCN1Cc2nc(NCc3cccnc3)ccc2C1=O` [Compound 4, 6-(2-(Dimethylamino)ethyl)-2-((pyridin-3-ylmethyl)amino)-6,7-dihydro-5H-pyrrolo[3,4-b]pyridin-5-one] here?
**A.** Its IC50 is 1 to 10 µM.

**Q.** Which IC50 does the source give for `O=C1c2ccc(NCc3cccnc3)nc2CN1c1ccccc1` [Compound 11] here?
**A.** The IC50 was greater than 10 µM.

**Q.** Which IC50 does the source give for `CN(C)C(C)(C)CN1Cc2nc(NCc3cccnc3)ccc2C1=O` [Compound 12, 6-(2-(Dimethylamino)-2-methylpropyl)-2-((pyridin-3-ylmethyl)amino)-6,7-dihydro-5H-pyrrolo[3,4-b]pyridin-5-one] here?
**A.** The IC50 was 1 to 10 µM.

**Q.** Which IC50 does the source give for `CN(C)CCCN1Cc2nc(NCc3cccnc3)ccc2C1=O` [Compound 13, 6-(3-(Dimethylamino)propyl)-2-((pyridin-3-ylmethyl)amino)-6,7-dihydro-5H-pyrrolo[3,4-b]pyridin-5-one] here?
**A.** Its IC50 is 1 to 10 µM.

**Q.** Which IC50 does the source give for `CC(=O)NCCCN1Cc2nc(NCc3cccnc3)ccc2C1=O` [Compound 15, N-(3-(5-Oxo-2-((pyridin-3-ylmethyl)amino)-5,7-dihydro-6H-pyrrolo[3,4-b]pyridin-6-yl)propyl)acetamide] here?
**A.** The IC50 was 1 to 10 µM.

**Q.** Which IC50 does the source give for `O=C1c2ccc(NCc3cccnc3)nc2CN1Cc1cnccn1` [Compound 17] here?
**A.** Its IC50 is 1 to 10 µM.

**Q.** With `CC(C)N1Cc2nc(NCc3cccnc3)ccc2C1=O` [Compound 19] as the molecule, how does the IC50 read?
**A.** Its IC50 is 1 to 10 µM.

**Q.** For `CC(=O)NCCN1Cc2nc(N[C@H](C)c3cccnc3)ccc2C1=O` [Compound 22, (R)—N-(2-(5-oxo-2-((1-(pyridin-3-yl)ethyl)amino)-5,7-dihydro-6H-pyrrolo[3,4-b]pyridin-6-yl)ethyl)acetamide], which IC50 is on record?
**A.** Its IC50 is greater than 10 µM.

**Q.** Which IC50 does the source give for `CC(=O)NCCN1Cc2nc(NCc3cncc(F)c3)ccc2C1=O` [Compound 26, N-(2-(2-(((5-fluoropyridin-3-yl)methyl)amino)-5-oxo-5,7-dihydro-6H-pyrrolo[3,4-b]pyridin-6-yl)ethyl)acetamide] here?
**A.** Its IC50 is 1 to 10 µM.

**Q.** With `CC(=O)NCCN1Cc2nc(NCc3ccncc3)ccc2C1=O` [Compound 27, N-(2-(5-oxo-2-((pyridin-4-ylmethyl)amino)-5,7-dihydro-6H-pyrrolo[3,4-b]pyridin-6-yl)ethyl)acetamide] as the molecule, how does the IC50 read?
**A.** The IC50 was 1 to 10 µM.

**Q.** With `COc1ccccc1CNc1ccc2c(n1)CN(CCNC(C)=O)C2=O` [Compound 28, N-(2-(2-((2-methoxybenzyl)amino)-5-oxo-5,7-dihydro-6H-pyrrolo[3,4-b]pyridin-6-yl)ethyl)acetamide] as the molecule, how does the IC50 read?
**A.** Its IC50 is 1 to 10 µM.

**Q.** Which IC50 does the source give for `COc1ccc(F)cc1CNc1ccc2c(n1)CN(CCNC(C)=O)C2=O` [Compound 29, N-(2-(2-((5-fluoro-2-methoxybenzyl)amino)-5-oxo-5,7-dihydro-6H-pyrrolo[3,4-b]pyridin-6-yl)ethyl)acetamide] here?
**A.** Its IC50 is 1 to 10 µM.

**Q.** For `CC(=O)NC(C)(C)CN1Cc2nc(NCc3cccnc3)ccc2C1=O` [Compound 38, N-(2-methyl-1-(5-oxo-2-((pyridin-3-ylmethyl)amino)-5,7-dihydro-6H-pyrrolo[3,4-b]pyridin-6-yl)propan-2-yl)acetamide], which IC50 is on record?
**A.** The IC50 was 1 to 10 µM.

**Q.** Which IC50 does the source give for `CC(=O)NCCN1Cc2nc(NCc3ccc(C#N)nc3)ccc2C1=O` [Compound 40, N-(2-(2-(((6-cyanopyridin-3-yl)methyl)amino)-5-oxo-5,7-dihydro-6H-pyrrolo[3,4-b]pyridin-6-yl)ethyl)acetamide] here?
**A.** The IC50 was 1 to 10 µM.

**Q.** For `N#Cc1cncc(CNc2ccc3c(n2)CN(CCNC(=O)C2CC2)C3=O)c1` [Compound 43, N-(2-(2-(((5-cyanopyridin-3-yl)methyl)amino)-5-oxo-5,7-dihydro-6H-pyrrolo[3,4-b]pyridin-6-yl)ethyl)cyclopropanecarboxamide], which IC50 is on record?
**A.** Its IC50 is greater than 10 µM.

**Q.** Which IC50 does the source give for `CC(=O)NCCN1Cc2nc(NCc3cnccn3)ccc2C1=O` [Compound 50] here?
**A.** The IC50 was 1 to 10 µM.

**Q.** With `CC(=O)NCCN1Cc2nc(NCc3cc(F)c(F)c(F)c3)ccc2C1=O` [Compound 71, N-(2-(5-oxo-2-((3,4,5-trifluorobenzyl)amino)-5,7-dihydro-6H-pyrrolo[3,4-b]pyridin-6-yl)ethyl)acetamide] as the molecule, how does the IC50 read?
**A.** The IC50 was 1 to 10 µM.

**Q.** With `CCC(=O)NCCN1Cc2nc(NCc3cc(F)c(F)c(F)c3)ccc2C1=O` [Compound 72, N-(2-(5-oxo-2-((3,4,5-trifluorobenzyl)amino)-5,7-dihydro-6H-pyrrolo[3,4-b]pyridin-6-yl)ethyl)propionamide] as the molecule, how does the IC50 read?
**A.** Its IC50 is 1 to 10 µM.

**Q.** With `CCC(=O)NCCN1Cc2nc(NCc3cnccc3C(F)(F)F)ccc2C1=O` [Compound 74, N-(2-(5-oxo-2-(((4-(trifluoromethyl)pyridin-3-yl)methyl)amino)-5,7-dihydro-6H-pyrrolo[3,4-b]pyridin-6-yl)ethyl)propionamide] as the molecule, how does the IC50 read?
**A.** Its IC50 is 1 to 10 µM.

**Q.** For `CCC(=O)NCCN1Cc2nc(NCc3ccc(F)cc3C)ccc2C1=O` [Compound 78, N-(2-(2-((4-fluoro-2-methylbenzyl)amino)-5-oxo-5,7-dihydro-6H-pyrrolo[3,4-b]pyridin-6-yl)ethyl)propionamide], which IC50 is on record?
**A.** Its IC50 is 1 to 10 µM.

Same assay, conditions: comparison with reference compound RR6

**Q.** For `O=C1NCc2nc(NCc3cccnc3)ccc21` [Compound 1, 2-((Pyridin-3-ylmethyl)amino)-6,7-dihydro-5H-pyrrolo[3,4-b]pyridin-5-one], which “potency (half-maximal inhibitory concentration) compared to RR6” value is on record?
**A.** The value was “up to two orders of magnitude greater than RR6”.

**Q.** Which “potency (half-maximal inhibitory concentration) compared to RR6” value does the source give for `O=C1NCCc2nc(NCc3cccnc3)ccc21` [Compound 2, 2-((Pyridin-3-ylmethyl)amino)-7,8-dihydro-1,6-naphthyridin-5(6H)-one] here?
**A.** Its value is “comparable to RR6”.

Tested on: not listed separately
Test: PAMPA permeability assay
Assay type: in vitro ADME
Conditions: 20 μM donor in PBS/MeOH 90:10, 5 hours at room temperature
Excerpt: Parallel artificial membrane permeability (PAMPA) assay is a non-cell based assay designed to predict in vivo biological membrane permeability of drugs in early stage of drug discovery. The 96-well Corning Gentest Pre-coated PAMPA Plate System (catalog no. 353015) was used to perform the assay. The Corning Gentest Pre-coated PAMPA plate system was designed by 96-well insert system with a […] PVDF (polyvinylidene fluoride) filter plate which has been pre-coated with structured tri-layers of phospholipids (lipid/oil/lipid) and a matched receiver microplate.
Donor solutions of test compounds (300 μL, 20 μM in PBS/MeOH 90:10) were added to each well of the donor plate. 200 μL of PBS/MeOH 90:10 was added to each well of the acceptor plate. The acceptor plate was coupled with the donor plate and incubated for 5 hours at room temperature (RT) without agitation. In each plate, compounds were tested in triplicate. At the end of the incubation, drug concentration in the initial donor solution, acceptor and the donor wells were determined using LC/MS/MS. A five (5) points standard curve from 0.1 to 1000 nM for each test compound were prepared. Analyte samples were diluted to within standard curve concentration with ACN/H2O 50:50 prior analysis.
All samples were analyzed by electrospray ionization (ESI) liquid chromtograph/mass spectrometry (LC/MS) system utilizing Sciex 5500 quadropule ion trap (Qtrap) mass spectrometry with Shidmazu Nexera X2 UHPLC. The LC-MS/MS instrument monitored each of the test compound in the study based of their respective mass-to-charge (m/z) transitions and MS parameters. Chromatographic separation was achieved on Phenomenex Luna C18 column (50×2.0 mm, 3 μm particle size) by using a gradient elution: mobile phase A contains 0.1% formic acid in water and mobile phase B contains 0.1% formic acid in acetonitrile; A/B (99:1) from 0 to 1 minutes; to A/B (1:99) from 1 to 4 minutes; A/B (1:99) from 4 to 8 minutes; to A/B (99:1) from 8 to 8.20 minutes; A/B (99:1) from 8.2 to 9 minutes. The flow rate was 0.4 mL/min and the column temperature was maintained at 35° C. and autosampler temperature at 4° C. For detection, the electrospray ionization operated in the positive mode using multiple reaction monitoring (MRM).
Data acquisition, and peak integrations were obtained by Analyst® Version 1.7.1 (Sciex) operating with Windows® (Microsoft). The standard curve regressions and sample concentrations were generated and calculated by Analyst®. Concentrations in the sample solutions were determined based on the measured peak area ratios from the response of the analyte to the internal standard with reference to the standard calibration curve. All sample calculations were calculated using a linear regression with 1/x2 weighting (where x is the concentration of given calibration standard level).
Permeability of the test compounds was calculated using the following formula:
Where: • A=filter area=[…] • VA=acceptor well volume (0.2 mL) • VD=donor well volume […], • t=incubation time=5 hours=18000 seconds, • CA(t)=compound concentration in acceptor well at time t (nM), • CD(t)=compound concentration in donor well at time t (nM), and […]

**Q.** For `CC(=O)NCCN1Cc2nc(NCc3c(F)cc(F)cc3F)ccc2C1=O` [Compound 37, N-(2-(5-oxo-2-((2,4,6-trifluorobenzyl)amino)-5,7-dihydro-6H-pyrrolo[3,4-b]pyridin-6-yl)ethyl)acetamide], which Papp at 5 h, 20 µM is on record?
**A.** Its Papp at 5 h, 20 µM is 0.68 ×10⁻⁶ cm/s.

**Q.** With `CCC(=O)NCCN1Cc2nc(NCc3c(F)cc(F)cc3F)ccc2C1=O` [Compound 73, N-(2-(5-oxo-2-((2,4,6-trifluorobenzyl)amino)-5,7-dihydro-6H-pyrrolo[3,4-b]pyridin-6-yl)ethyl)propionamide] as the molecule, how does the Papp at 5 h, 20 µM read?
**A.** Its Papp at 5 h, 20 µM is 0.79 ×10⁻⁶ cm/s.

**Q.** Which Papp at 5 h, 20 µM does the source give for `[2H]C([2H])([2H])C(=O)NCCN1Cc2nc(NCc3c(F)cc(F)cc3F)ccc2C1=O` [Compound 202, N-(2-(5-oxo-2-((2,4,6-trifluorobenzyl)amino)-5,7-dihydro-6H-pyrrolo[3,4-b]pyridin-6-yl)ethyl)acetamide-2,2,2-d3] here?
**A.** Its Papp at 5 h, 20 µM is 1.83 ×10⁻⁶ cm/s.

**Q.** For `[2H]C([2H])([2H])C([2H])([2H])C(=O)NCCN1Cc2nc(NCc3c(F)cc(F)cc3F)ccc2C1=O` [Compound 204, N-(2-(5-oxo-2-((2,4,6-trifluorobenzyl)amino)-5,7-dihydro-6H-pyrrolo[3,4-b]pyridin-6-yl)ethyl)propenamide-d5], which Papp at 5 h, 20 µM is on record?
**A.** The Papp at 5 h, 20 µM was 1.07 ×10⁻⁶ cm/s.

Same assay, conditions: deuterated vs non-deuterated (Compounds 37 and 73, respectively)

**Q.** Which “permeability compared to non-deuterated counterparts” value does the source give for `[2H]C([2H])([2H])C(=O)NCCN1Cc2nc(NCc3c(F)cc(F)cc3F)ccc2C1=O` [Compound 202, N-(2-(5-oxo-2-((2,4,6-trifluorobenzyl)amino)-5,7-dihydro-6H-pyrrolo[3,4-b]pyridin-6-yl)ethyl)acetamide-2,2,2-d3] here?
**A.** Its value is “improved permeability”.

**Q.** Which “permeability compared to non-deuterated counterparts” value does the source give for `[2H]C([2H])([2H])C([2H])([2H])C(=O)NCCN1Cc2nc(NCc3c(F)cc(F)cc3F)ccc2C1=O` [Compound 204, N-(2-(5-oxo-2-((2,4,6-trifluorobenzyl)amino)-5,7-dihydro-6H-pyrrolo[3,4-b]pyridin-6-yl)ethyl)propenamide-d5] here?
**A.** The value was “improved permeability”.
